The values below come from patent US12344598B2, “Bis(diazirine) derivatives as photo-crosslinker for treating corneal ectatic disorders” (Avedro, Inc., priority 2019, dated 2025).

Each structure is given as a SMILES string. Marks after values point to notes of the source that are not given here.

Test [1] has as its system cornea. The experiment in a line: Porcine Eye Corneal Flattening Assay. Particulars: overall change in keratometry (Km) of central 3 mm zone; UVA 4 mm circle, 365 nm, 30 mW/cm^2, CW, 8.1 min, 15 J total dose, normal (21% O2) atmosphere, 37.0° C. As to the method:
Porcine whole globes in saline at 4° C. were warmed to room temperature. The corneas were then de-epithelialized with a dulled scalpel blade and the eyes placed into custom movable eye holders in a horizontal position with the cornea facing upward. The eye holders were then positioned inside an enclosed chamber that allows for the control of atmosphere, temperature and humidity (typically a water bath at 37.0° C.). IOP is maintained at a constant pressure by the insertion of a blood bank buffered saline line from an IV bag at a standard height inserted into each eye via a syringe needle. 5% Dextran T500 in blood bank buffered saline is dropped onto the surface of the cornea of each eye every 90 sec for 2 hours to allow the eyes to stabilize. […] The test eye is then orientated in a vertical position and the pre-treatment surface keratometry of the cornea measured using a Pentacam® HR device fine cornea 100 scan. […] After a further 1.5 hours during which the 5% dextran drops are resumed the eye is orientated back to the vertical position and the post-treatment surface keratometry of the cornea measured using a Pentacam® HR device fine cornea 100 scan as before. The difference map between the pre and post treatment corneal images is obtained and the overall change in keratometry (Km) of the central 3 mm zone recorded as a change in diopters. […]

In test [2] the test system is cornea. Put plainly: Porcine Eye Corneal Stiffening Assay. The following applies: UVA 9 mm circle, 365 nm, 30 mW/cm^2, CW, 8.1 min, 15 J, 21% O2, 37.0° C., untreated cornea = 10.1. As to the method:
Porcine whole globes in saline at 4° C. were warmed to room temperature. The eyes were either immediately placed into custom movable eye holders in a horizontal position with the cornea facing upward or were first de-epithelialized with a dulled scalpel blade before being placed in the holder. The eye holders were then positioned inside an enclosed chamber that allows for the control of atmosphere, temperature and humidity (typically a water bath at 37.0° C.). A solution of test compound held in place by a small rubber O-ring on the center of the cornea is then allowed to soak into the cornea surface of the test eye. After a set soaking time (typically 10 minutes) the O-ring is removed and any excess test solution washed away with saline. A specific pattern of UVA light at 365 nm is administered to the test eye cornea over a desired dosing period. A corneal flap of desired thickness (typically 200 μm is then excised from the eyes using a femtosecond laser (Zeimer, LDV1). The corneal flap is placed in saline at ambient temperature for 20 minutes and then mounted onto a biaxial extensiometer (CellScale Biotester5000, Waterloo, ON), using biorake attachments (5 tines spanning a width of 3.5 mm). The corneal flap is stretched at a constant rate of 4 μm/s in saline at 37° C. until sample failure. The maximum slope of the force vs distance curve is calculated and compared to that obtained from an untreated cornea.
The following notes provide further clarification regarding certain steps in the assay: • (1) A solution of the test compound (typically 0.22% w/v in saline) is held in place by a small rubber O-ring on the center of the cornea is then allowed to soak into the cornea surface of the test eye. After a set soaking time of 5-30 minutes (typically 10 minutes) the O-ring is removed and any excess test solution washed away with saline. • (2) A corneal flap of desired thickness and diameter (typically 200 μm thick by 8 mm diameter) is then excised from the eyes using a femtosecond laser (Zeimer, LDV1). The corneal flap is either placed in saline at ambient temperature for 20 minutes and then mounted in saline onto a biaxial extensiometer (CellScale Biotester5000, Waterloo, ON) or mounted directly onto the tester in 5% Dextran T500/saline. • (3) Biorake attachments (5 tines spanning a width of 3.5 mm) are used to hold the flap as it is stretched at 37° C. and a constant rate of 4 μm/s in both X (5 N load cell) and Y (10 N load cell) directions simultaneously. • (4) The maximum slope of the force vs distance curve corresponds to the stiffening value. It is compared to that obtained from an untreated cornea.

[3] abbreviates: maximum slope of force vs distance curve of corneal flap.
Setting [4] is: eyes were not de-epithelialized prior to treatment.

Take `CC1(CCNCC(=O)NCCC2(C)N=N2)N=N1` [Example 1]: in test [1], the “Refractive Change (D)” value is −0.32 D. In test [2] (setting [3]), this compound showed a Max slope of 11.28.
On to `CC1(CCNCCC(=O)N[C@@H](CC(=O)O)C(=O)OCCC2(C)N=N2)N=N1` [Example 6], for which the Max slope in test [2] (setting [4]) is recorded as 10.88^#.
Take `CC1(CCNCCC(=O)N[C@@H](CCCCNC(=N)N)C(=O)NCCC2(C)N=N2)N=N1` [Example 10]: the “Refractive Change (D)” value in test [1] is on record as −0.64 D. Further, the Max slope in test [2] (setting [4]) is 10.14^#.
In the case of `CC1(CCN(CCC2(C)N=N2)CC(=O)O)N=N1` [Example 13], the Max slope in test [2] (setting [3]) is given as 12.38.
Turning to `CC1(CCC(=O)N(CCC2(C)N=N2)CC(=O)O)N=N1` [Example 14], the Max slope worked out at 10.5 in test [2] (setting [4]) and 10.66 in test [2] (setting [3]).
The compound `CC1(CCNCC(=O)N[C@@H](CC(=O)O)C(=O)NCCC2(C)N=N2)N=N1` [Example 17] yielded a Max slope in test [2] (setting [3]) of 10.13.
As for `CC1(CCC(=O)N(CCC2(C)N=N2)[C@@H]2CCNC2)N=N1` [Example 23], the Max slope in test [2] (setting [4]) is 10.68^#.
